Read-outs that look alike come from different tables or passages of the source.
How the values were obtained:
Assay type in all cases: cell-based, human
[1] = test system: MCF7 cells; assay: MCF7 cell viability, sulforhodamine B assay; conditions: for IC50: Homo sapiens, MCF7
Procedure: MCF7 (ER^+, PR^+, HER2^−), SKBR3 (ER^−, PR^+, HER2^+) and MDA-MB231 (ER^−, PR^−, HER2^−) human BC cells and MCF10A non-cancer breast epithelial cells were available in our laboratory. MCF7, SKBR3 and MDA-MB231 cells were cultured in DMEM, supplemented with 10% FBS, 2 mM glutamine, 100 units/ml penicillin and 100 units/ml streptomycin. MCF10A cells were cultured in MEBM, supplemented with 0.4% BPE, 0.1% hEGF, 0.1%, Insulin, 0.1% Hydrocortisone and 0.1% GA-1000. […] Treatment with SER were carried out in culture conditions. Treatment with Tamoxifen and/or SER were carried out upon 48 h estrogen starvation in phenol-red free medium supplemented with 10% Charcoal Stripped (C/S) FBS, 2 mM glutamine, 100 units/ml penicillin and 100 units/ml streptomycin.
(§1) Cells were fixed with 50% trichloroacetic acid for at least 2 h at 4 °C, washed with distilled and de-ionized water, air-dryed and stained 30 min with 0.4% sulforhodamine B in 1% acetic acid. Unbound dye was removed and 10 mM tris-HCl solution (pH 7.5) was added to dissolve the protein-bound dye. Cell survival was assessed by optical density determination at 510 nm using a microplate reader.
After 48 and 72 h, cell viability was assessed by sulforhodamine B assay (see Methods).

[2] = test system: CTGF; assay: CTGF mRNA levels in MCF7 cells, qPCR; conditions: E2 100 nM, 72 h, estrogen-starved MCF7; for CTGF mRNA levels lower compared with untreated cells: SER at IC50 dose
Procedure: Total RNA was isolated from cells, quantified (NanoDrop spectrophotometer, Life Technologies, Carlsbad, CA, USA) and reverse transcribed according to the manufacturer’s instructions. Semiquantitative PCR and qPCR assays were performed according to manufacturer’s instructions for Bio-Rad T100 thermal cycler and CFX Connect Real Time system (Biorad, Hercules, CA, USA), respectively. Relative gene expression quantification was measured by 2^−ΔΔCt method normalizing for the reference sample using Rps23 (Ribosomal Protein S23) as housekeeping gene.
After 72 h, cell cycle was assessed by Propidium Iodide staining (see Methods). […] As positive control, the cells were treated with E2 and SER alone (without Tamoxifen, dotted line). After 72 h, cell viability was assessed by sulforhodamine B assay (see Methods). […] After 72 h, mRNA levels of CTGF were determined by qPCR (see Methods and Table 1). Data were normalized on Ribosomal Protein S23 (Rps23) gene as internal standard and were reported as CTGF mRNA levels in MCF7 treated with SER relative to those in untreated cells (dotted line). a-c Data represent the mean ± SD of at least three independent triplicate experiments. * denotes statistically significant values compared with (a) percentage of untreated cells in G0/G1, S and G2/M cell cycle phase (*pval<0.05,**pval<0.01), (b) positive control (*adjp<0.05,**adjp <0.01,***adjp<0.001), (c) untreated cells (pval<0.05); # denotes statistically significant values compared with cells treated with Tamoxifen in absence of SER (#pval<0.05)
Fig. 7 Effect of low doses of SER79 and SER68 on MCF7 and MCF10A cells. a Estrogen-starved MCF7 cells (48 h) were treated with Tamoxifen (5 μM) in presence of E2 (100nM) and SER79 (5 μM) or SER68 (20 μM, 5 μM). As positive control, the cells were treated with E2 and SER alone (without Tamoxifen, dotted line). After 72 h, cell viability was assessed by sulforhodamine B assay (see Methods). […] After 72 h, mRNA levels of CTGF were determined by qPCR (see Methods and Table 1). Data were normalized on Ribosomal Protein S23 (Rps23) gene as internal standard. Bars represent CTGF mRNA levels in MCF7 treated with SER relative to those in untreated cells (dotted line). c MCF10A non-cancer breast epithelial cells were treated with SER79 (5 μM) or SER68 (20 μM). After 72 h, cell viability was assessed by sulforhodamine B assay (see Methods).

[3] = test system: Tamoxifen-cultured MCF7 cells; assay: Tamoxifen-cultured MCF7 cell viability, sulforhodamine B assay; conditions: E2 100 nM, 72 h; for further reduction of viability elicited by Tamoxifen in presence of SER: Tamoxifen 5 μM, Tamoxifen-cultured MCF7
Procedure: as §1
To further investigate the effect of SER79 and SER68 on Tamoxifen responsiveness and CTGF expression in MCF7 cells, we obtained - by a continuous treatment of 10 days with 1 μM Tamoxifen – a cellular model less sensitive to the drug (Tamoxifen-cultured MCF7). We observed that 20 μM SER79, 20 μM and 40 μM SER68, while not 5 μM SER79, reduced viability of Tamoxifen-cultured MCF7 cells by about 40% (adjp<0.01; Fig. 8a). […] However, in the presence of 20 μM SER79, 20 μM and 40 μM SER68, Tamoxifen elicited a further 40% reduction of viability, similar to that achieved in Tamoxifen-responsive MCF7 cells (adjp<0.01; Fig. 8b).
Fig. 8 Effect of SER79 and SER68 on Tamoxifen-cultured MCF7 cells. MCF7 cells were cultured in presence of Tamoxifen (1 μM) for 10 days. Estrogen-starved MCF7 and Tamoxifen-cultured MCF7 cells (48 h) were (a-c) treated with SER79 (20 μM, 5 μM) or SER68 (40 μ, 20 μM), (b) treated with Tamoxifen (5 μM) in presence of SER79 (20 μM, 5 μM) or SER68 (40 μM, 20 μM). All treatments were carried out in presence of E2 (100 nM) for 72 h. As positive control, the cells were treated with (a-c) E2 alone or (b) E2 in absence or in presence of SER (as indicated, dotted line). a,b Cell viability was assessed by sulforhodamine B assay (see Methods). The results were reported as percentage of viable cells compared to positive control, considered as maximum viability (100%). c mRNA levels of CTGF were determined by qPCR (see Methods and Table 1). Data were normalized on Ribosomal Protein S23 (Rps23) gene as internal standard and reported as CTGF mRNA levels in Tamoxifen-cultured MCF7 relative to those in MCF7 cells (dotted line). a-c Graphs represent the mean ± SD of at least three independent triplicate experiments. * denotes statistically significant values compared with (a,b) positive control (*adjp<0.05, ** adjp<0.01) or (c) MCF7 cells (*pval<0.05); # denotes statistically significant values compared with (b) cells treated with Tamoxifen in absence of SER or (c) untreated Tamoxifen-cultured MCF7 cells (#pval<0.01, ##pval<0.0001)

[4] = 48 h treatment, read-out: IC50 MCF7 48h
[5] = 72 h treatment, read-out: IC50 MCF7

Compound	IC50 [1, 4]	IC50 [1, 5]	reduction of CTGF expression ([2]; SER 20 μM)	CTGF mRNA levels lower compared with untreated cells [2]	reduction of viability of Tamoxifen-cultured MCF7 cells ([3]; SER 20 μM alone)	further reduction of viability elicited by Tamoxifen in presence of SER ([3]; SER 20 μM)	reduction of viability of Tamoxifen-cultured MCF7 cells ([3]; SER 40 μM alone)	further reduction of viability elicited by Tamoxifen in presence of SER ([3]; SER 40 μM)	reduction of MCF7 cell viability ([1]; 50 μM, 72 h)	reduction of CTGF expression ([2]; SER 5 μM)	further reduction of viability elicited by Tamoxifen in presence of SER ([3]; SER 5 μM)
O=C1C2C3C=CC(C3)C2C(=O)N1OCCN1CCN(c2ccc(Cl)c(Cl)c2)CC1 (stereo not shown) [SER68]	131 ± 13.8 µM	54.2 ± 10.2 µM	≈ 50%	≈ 80%	about 40%	40%	about 40%	40%	–	–	–
N#CN=C(NCCCN1CCN(C(c2ccc(F)cc2)c2ccc(F)cc2)CC1)c1ccccn1 [SER79]	85.1 ± 13.4 µM	24.1 µM	–	≈ 60%	about 40%	40%	–	–	≈ 70%	≈ 30%	No Tamoxifen effect was observed

— paper PMC8845285, “Serotoninergic receptor ligands improve Tamoxifen effectiveness on breast cancer cells” (BMC Cancer, 2022)
